Legend:
HS-PSS [1] = test: drug sensitivity score (DSS, CellTox-Green cytotoxicity, 72 h) (DSS (dimensionless)); higher = more cytotoxic; extreme values may be limits of the assay
Summary of the method: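 MPNST cell lines and primary human Schwann cells were incubated 72 h at 37 °C in 384-well plates holding five 10-fold compound dilutions. CellTox-Green was added before seeding at a final 1:1000 dilution and reported fluorescence from DNA released by disrupted cells. Signals were scaled to vehicle and positive-control wells, and cultures failing plate quality control were dropped. Drug sensitivity score and relative IC50 come from four-parameter logistic fits, with IC50 censored at the top concentration.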

YST-1 [2] = test: drug sensitivity score (DSS, CellTiter-Glo viability, 72 h) (DSS (dimensionless)); higher = more sensitive; extreme values may be limits of the assay
Summary of the method: (§1)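 Viability was scored by CellTiter-Glo ATP luminescence, scaled from vehicle to positive-control wells, with duplicates averaged where present. The cells, MPNST lines and primary human Schwann cells at 750–1000 per well, sat 72 h at 37 °C, 5% CO2, in 384-well plates preprinted with each compound at five concentrations in 10-fold steps. Four-parameter logistic fits were run on the data. These fits give drug sensitivity score and relative IC50 censored at the top concentration, and percent inhibition is reported at the top concentration.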

HS-Sch-2 [3] = test: as above
Summary of the method: as §1

HS-PSS [4] = test: as above
Summary of the method: as §1

YST-1 [5] = test: % inhibition of CellTiter-Glo viability at highest tested concentration (72 h), relative to DMSO and benzethonium chloride controls; higher = more inhibition
Summary of the method: as §1

HS-Sch-2 [6] = test: as above
Summary of the method: as §1

HS-PSS [7] = test: as above
Summary of the method: as §1

SMILES	drug sensitivity score (HS-PSS [1])	drug sensitivity score (YST-1 [2])	drug sensitivity score (HS-Sch-2 [3])	drug sensitivity score (HS-PSS [4])	% inhibition (YST-1 [5]) [%]	% inhibition (HS-Sch-2 [6]) [%]	% inhibition (HS-PSS [7]) [%]
CN(C[C@@H]1COCCO1)S(=O)(=O)Nc1ccc2ccc3ncc(-c4cnn(C)c4)cc3c(=O)c2c1 [MK-2461] (max concentration tested 10000 nM)	0	6.02	2.68	0.69	67.3	55.1	25.5
O=C(c1cccc(Cl)c1F)N1CCN(Cc2cccc(Nc3nccs3)n2)CC1 [MK-8745] (max concentration tested 2500 nM)	0.89	4.21	3.17	0.32	36.5	48.5	17.5
Cn1cc(-c2cnn3c(N)c(Br)c([C@@H]4CCCNC4)nc23)cn1 [MK-8776] (max concentration tested 2500 nM)	0	2.03	7.06	0	29.6	72	7.73
Cc1cnc(-c2ccccc2C(C)C)nc1NCc1ccc(-n2ccnn2)cc1 [ML323] (max concentration tested 10000 nM)	0	0.66	3.67	3.56	18.2	39.9	42
O=C(O)c1ccc(Nc2ncc3c(n2)-c2ccc(Cl)cc2C(c2c(F)cccc2F)=NC3)cc1 [MLN-8054] (max concentration tested 10000 nM)	0	6.64	6.25	3.57	46.6	60.3	36.4
O=C(Nc1cccc(NC(=O)c2cccc(O)c2O)c1)c1cccc(O)c1O [MST-312] (max concentration tested 10000 nM)	0.02	5.45	10.8	4.53	96.2	90.7	86.4
CNC(=O)[C@@H](NC(=O)[C@H](CC(C)C)[C@H](O)C(=O)NO)C(C)(C)C [Marimastat] (max concentration tested 10000 nM)	0	0	0.33	0	7.56	17.1	-7.14
CC(=O)O[C@]1(C(C)=O)CC[C@H]2[C@@H]3C=C(C)C4=CC(=O)CC[C@]4(C)[C@H]3CC[C@@]21C [Megestrol acetate] (max concentration tested 10000 nM)	0	0	0	0	6.88	2.53	-2.66
N[C@@H](Cc1ccc(N(CCCl)CCCl)cc1)C(=O)O [Melphalan] (max concentration tested 12500 nM)	0	0	0	0	3.44	7.23	3.32
CCN(CC)CCCC(C)Nc1c2ccc(Cl)cc2nc2ccc(OC)cc12 (stereo not given) [Mepacrine] (max concentration tested 50000 nM)	18	17.3	18.5	18.5	101	101	101
Cc1ccc(C(=O)Nc2ccc(Oc3cc4cnn(C)c4cc3-c3cn[nH]c3)c(F)c2)c(=O)n1-c1ccc(F)cc1 [Merestinib] (max concentration tested 1000 nM)	0	1.74	1.13	3.07	25.2	31	46.7
CN(C)C(=N)NC(=N)N [Metformin] (max concentration tested 100000 nM)	0	0	0	0.59	-0.71	7.35	19.4
CNC(=O)c1nn(C)c2c1C(C)(C)Cc1cnc(Nc3ccc(N4CCN(C)CC4)cc3)nc1-2 [Milciclib] (max concentration tested 10000 nM)	0.17	16.6	9.72	9.77	101	96	79.3
FC(F)(F)c1ccc(/C=C/c2nc(COc3ccc(CCCCn4ccnn4)cc3)co2)cc1 [Mubritinib] (max concentration tested 1000 nM)	0	6.65	12.9	17.4	28.4	62.9	74.8
OC(CC1c2ccccc2-c2cncn21)C1CCCCC1 (stereo not given) [NLG919] (max concentration tested 10000 nM)	0	0	0	0	10.1	0.68	7.55
Cc1cc(OCc2nnc(SC3CCCC3)n2-c2cccnc2)ccc1-c1ccc(S(C)(=O)=O)cc1 [NMS-873] (max concentration tested 10000 nM)	5.58	9.52	19.2	22.9	99.9	101	99.9
CCN1CCN(Cc2ccc(-c3cc4c(N[C@H](C)c5ccccc5)ncnc4[nH]3)cc2)CC1 [NVP-AEE788] (max concentration tested 2500 nM)	0	1.87	0	1.04	22.3	2.96	22.7
Nc1ncnc2c1c(-c1cccc(OCc3ccccc3)c1)cn2[C@H]1C[C@@H](CN2CCC2)C1 [NVP-AEW541] (max concentration tested 10000 nM)	7.08	13	8.08	5.83	98.3	99.8	100
COc1ccc(-c2ccc3ncc4c(c3c2)n(-c2ccc(N3CCNCC3)c(C(F)(F)F)c2)c(=O)n4C)cn1 [NVP-BGT226] (max concentration tested 1000 nM)	3.94	19.7	21.4	15.3	99.5	98.2	99.1
CNC(=O)c1ccc(-c2cnc3ncc(Cc4ccc5ncccc5c4)n3n2)cc1F [NVP-INC280] (max concentration tested 1000 nM)	0	0.19	1.29	0	12.3	6.7	7.48
Cc1cc(-c2ncc(CC(=O)Nc3ccc(-c4cnccn4)cn3)cc2C)ccn1 [NVP-LGK974] (max concentration tested 10000 nM)	0	0	3	3.51	1.59	52.2	45.4
NC(=O)c1cccc2cn(-c3ccc(C4CCCNC4)cc3)nc12 (stereo not given) [Niraparib] (max concentration tested 10000 nM)	0.21	7.91	2.37	4.28	54.5	26.4	50.4
COc1ccc(C[C@H](NC(=O)[C@H](C)NC(=O)CN2CCOCC2)C(=O)N[C@@H](Cc2ccccc2)C(=O)[C@@]2(C)CO2)cc1 [ONX-0914] (max concentration tested 10000 nM)	17.5	18.1	21.7	17.6	101	101	100
O=C(Nc1ccc(OC(F)(F)F)cc1)c1sccc1NCc1ccnc2ccccc12 [OSI-930] (max concentration tested 2500 nM)	0	0	0.3	2.5	1.07	17.9	23.2
CC(=O)c1cnc2ccc(-c3cc(Cl)c(O)c(Cl)c3)nc2c1N[C@H]1CC[C@H](CN(C)C)CC1 [OTSSP167] (max concentration tested 1000 nM)	0.29	23.8	18.5	4.33	100	101	83.1
Cc1sc2c(c1C)C(c1ccc(Cl)cc1)=N[C@@H](CC(=O)Nc1ccc(O)cc1)c1nnc(C)n1-2 [OTX015] (max concentration tested 10000 nM)	0	14.5	14.6	10.7	69.2	75.4	59.5
COc1ncc(-c2ccc3nccc(-c4ccnnc4)c3c2)cc1NS(=O)(=O)c1ccc(F)cc1F [Omipalisib] (max concentration tested 1000 nM)	0	23.6	9.45	10.6	94	83.8	64.3
CC(C)c1cc(C(=O)N2Cc3ccc(CN4CCN(C)CC4)cc3C2)c(O)cc1O [Onalespib] (max concentration tested 2500 nM)	6.31	12.6	21.4	13.2	75.8	101	81.9
COC[C@H](NC(=O)c1cnc(C)s1)C(=O)N[C@@H](COC)C(=O)N[C@@H](Cc1ccccc1)C(=O)[C@@]1(C)CO1 [Oprozomib] (max concentration tested 2500 nM)	7.1	18.4	26.3	14.3	101	102	98.3
Cc1[nH]c(/C=C2\C(=O)Nc3ccccc32)c(C)c1CCC(=O)O [Orantinib] (max concentration tested 10000 nM)	20.3	0.72	0	0.29	20	0.75	15

— the supplement of paper PMC5579334
